Reference: paper PMC9996794 (ACS Omega, 2023)

Legend:
[1] = cited from earlier work
[2] = test system: bovine serum albumin (BSA); conditions: cited from earlier work
[3] = Critical micelle concentration from conductivity measurements; format: physicochemical; conditions: 25 °C
L929 cells = assay: Cytotoxicity, MTT assay; format: cell-based; conditions: read-out: IC50 (best-fit), 48 h (method b31 says 24 h)
[4] = Thermogravimetric analysis; format: physicochemical; conditions: TGA, nitrogen, 10 °C·min^–1
[5] = Solubility in water or ethanol by the conductivity method; conditions: 25 °C
[6] = Pharmacokinetic experiments in mice; format: in vivo; conditions: printed as 'higher than that of naproxen'
[7] = cited from earlier work; remark: listed apart in the source

SMILES	increase of permeation of naproxen through the skin [1]	binding affinity for BSA relative to parent naproxen [2]	critical micelle concentration ([3]; ethanol)	critical micelle concentration ([3]; water)	IC50 (L929 cells)	beginning weight loss temperature [4]	mass of solute per 100 g of solvent ([5]; ethanol)	mass of solute per 100 g of solvent ([5]; water)	cmax [6]	improvement of dissolution rates compared with the original naproxen [7]
CC(C)OC(=O)[C@@H]1CCCN1.COc1ccc2cc([C@H](C)C(=O)O)ccc2c1 [L-proline isopropyl ester naproxen]	almost four times	–	–	–	–	–	–	–	–	–
CC(C)OC(=O)[C@@H](N)C(C)C.COc1ccc2cc([C@H](C)C(=O)O)ccc2c1 [L-valine isopropyl ester naproxen]	–	about 1 order of magnitude lower	–	–	–	–	–	–	–	–
CCCCCCCCCCCCCC[N+](C)(C)Cc1ccccc1.COc1ccc2cc([C@H](C)C(=O)[O-])ccc2c1 [[Ben][Nap], tetradecyldimethylbenzyl ammonium naproxen]	–	–	6.25 × 10^–6 mol·L^–1	3.05 × 10^–5 mol·L^–1	111 µM	147.05 °C	97.61 g·100 g^–1	61.6251 g·100 g^–1	–	–
COc1ccc2cc(C(C)C(=O)[O-])ccc2c1.C[N+](C)(C)CCO (stereo not shown) [[Ch][Nap], choline naproxen]	–	–	3.48 × 10^–6 mol·L^–1	3.75 × 10^–5 mol·L^–1	783 µM	171.93 °C	70.23 g·100 g^–1	124.51 g·100 g^–1	23.051 mg·L^–1	–
CCCCCCCCn1cc[n+](C)c1.COc1ccc2cc(C(C)C(=O)[O-])ccc2c1 (stereo not shown) [[Omim][Nap], 1-octyl-3-methylimidazole naproxen]	–	–	4.89 × 10^–6 mol·L^–1	5.68 × 10^–5 mol·L^–1	174 µM	218.79 °C	82.00 g·100 g^–1	112.56 g·100 g^–1	–	–
CCCC[P+](CCCC)(CCCC)CCCC.COc1ccc2cc(C(C)C(=O)[O-])ccc2c1 [[Tbp][Nap], tetrabutyl phosphonium naproxen]	–	–	–	–	–	–	–	–	–	up to 1000 times
